Measurements taken from article PMC3446843 (Toxicological Sciences, 2012).

Legend:
[1] = tested on: isolated mouse liver mitochondria; assay: Cytochrome c release; type: biochemical; conditions: without Ca2+ pulse
[2] = tested on: isolated mouse liver mitochondria, complex I; assay: Oxygen consumption through complex I; conditions: inhibition of oxygen consumption, malate + glutamate + ADP; 2µM rotenone = 100%
[3] = tested on: isolated mouse liver mitochondria; assay: Loss of mitochondrial transmembrane potential; type: biochemical; conditions: 20% of maximal loss of ΔΨm (50µM mClCCP = 100%), 30-min incubation
[4] = tested on: isolated mouse liver mitochondria; assay: Mitochondrial swelling; conditions: without Ca2+ pulse
[5] = short incubation of isolated mitochondria; ref Kamel et al. (2012); cited from earlier work

Row | Compound | induction of cytochrome c release (in words) [1] | O2 cons CI EC20 [2] [µM] | ΔΨm loss EC20 [3] [µM] | induction of mitochondrial swelling (in words) [4] | compound metabolized [5] [%]
1 | C1CCC(C(CC2CCCCN2)C2CCCCC2)CC1 (centres unmarked) [Perhexiline] | induced mitochondrial swelling and cytochrome c release when very low concentrations were used | 87.7 | 3.2 | induced mitochondrial swelling and cytochrome c release when very low concentrations were used | –
2 | CNS(=O)(=O)Cc1ccc2[nH]cc(CCN(C)C)c2c1 [Sumatriptan] | – | > 400 | 248.3 | – | 30
3 | O=C(O)Cc1ccccc1Nc1c(Cl)cccc1Cl [Diclofenac] | unable to induce | 29.8 | 137.9 | – | –
4 | Cc1c(C)c2c(c(C)c1O)CCC(C)(COc1ccc(CC3SC(=O)NC3=O)cc1)O2 (centres unmarked) [Troglitazone] | unable to trigger | 6.0 | 3.4 | unable to trigger | –
